Source: paper PMC6508677, “Identification of druggable small molecule antagonists of the Plasmodium falciparum hexose transporter PfHT and assessment of ligand access to the glucose permeation pathway via FLAG-mediated protein engineering” (PLoS ONE, 2019)
Where “and” joins values, the source holds several entries; their conditions need not be identical. Identical values can stand only once. Like-named read-outs stand apart in the source and are kept apart here.

Tests used:
PfHT = target: T1, PfHT (Plasmodium falciparum, UniProt Q7KWJ5); assay: 2-DG uptake by HEK293 cells overexpressing PfHT; format: cell-based; parameters: expressed in transfected cells; host or cells: HEK293 (HEK293-FLIP, native hGLUT1 knocked down by shRNA)
T1 sequence (Q7KWJ5 1-504): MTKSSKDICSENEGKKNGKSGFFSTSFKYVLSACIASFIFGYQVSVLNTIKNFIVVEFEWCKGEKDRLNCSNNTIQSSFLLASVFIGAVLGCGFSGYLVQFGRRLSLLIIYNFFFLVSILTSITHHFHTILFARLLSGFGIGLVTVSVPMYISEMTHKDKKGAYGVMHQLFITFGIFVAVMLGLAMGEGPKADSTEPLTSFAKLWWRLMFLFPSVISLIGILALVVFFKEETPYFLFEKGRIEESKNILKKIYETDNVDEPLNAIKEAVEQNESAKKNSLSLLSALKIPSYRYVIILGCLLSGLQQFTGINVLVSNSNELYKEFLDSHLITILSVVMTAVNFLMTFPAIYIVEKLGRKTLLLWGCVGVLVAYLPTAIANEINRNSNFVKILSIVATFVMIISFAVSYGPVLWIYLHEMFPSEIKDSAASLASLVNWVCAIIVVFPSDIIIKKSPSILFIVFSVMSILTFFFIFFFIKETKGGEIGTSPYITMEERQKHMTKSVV
Description: (§1) Generation of HEK293 cells overexpressing PfHT and human GLUTs 1–4 were described elsewhere. Briefly, HEK293 cells were transfected with pcDNA3.1 FLII12Pglu-7006 (Addgene), containing the fluorescence resonance energy transfer (FRET) glucose sensor (HEK293-FLIP) and PfHT, human GLUT1 (hGLUT1), hGLUT2, hGLUT3, hGLUT4, hGLUT5 or hGLUT8 using Optifect (Life Technologies) according to manufacturer’s specifications. To increase retention of GLUT8 at the plasma membrane, the dileucine sorting signal E^7E^8XXXLL was modified to R^7R^8XXXLL as described in [17]. Stable transfectants were selected for G418 and hygromycin resistance to select for FRET sensor and hexose transporter, respectively. HEK293-FLIP cells were also used to generate cells stably transfected with FLAG-tagged PfHT (FTPfHT). FLAG tag ([…]) followed by a triple glycine linker and a tobacco etch virus (TEV) protease site (ENLYFQS) followed by a triple glycine linker was added to the N-terminus of PfHT via PCR [18] using Phusion Hot Start II High-Fidelity DNA Polymerase (Fisher Scientific). Single clones were selected by comparing their abilities to transport glucose as assayed via FRET and radiolabeled hexose uptake. In all cell lines, except for HEK293 cells overexpressing hGLUT1 and hGLUT5, native hGLUT1 was knocked down using shRNA as described elsewhere. Transcript levels of the individual GLUTs expressed in each cell line are as described in [13, 15] and in S1 Fig.
(§2) Glucose uptake by P. falciparum was performed essentially as described. P. falciparum strain 3D7 was cultured in 100 mm tissue culture dishes (Techno Plastic Products) in a 2% suspension of human erythrocytes and RPMI 1640 medium until reaching > 7.5% parasitemia. Cells were pelleted via centrifugation and resuspended in RPMI 1640 medium. To determine the uptake of radiolabeled glucose into the parasite, parasites were isolated from infected erythrocytes by permeablization with saponin (0.05 w/v), followed by centrifugation, aspiration of supernatant and washing of the pellet 3X with saline solution (135 mM NaCl, 2 mM KCl, 25 mM HEPES, 0.2 mM glucose and 1 mM MgCl2; pH 7.1) to remove cellular debris. WU-1 or DMSO vehicle were added to 100 μl parasites (resuspended in saline) 5 min prior to the addition of 100 μl [^14C]2-DOG (0.2- μCi/ml final concentration). 2-DG uptake was stopped after 2 min by layering the entire reaction over 300 μl of an oil mixture (5:4 mix of dibutyl phthalate / dinonyl phthalate) in Eppendorf tubes and centrifuged at 15,850 × g for 2 mins. The ratio of the estimated intracellular concentration of radiolabel relative to the extracellular concentration were calculated as described. Uptake of radiolabeled hexose into HEK293 cells was measured in glucose-free HBSS as described previously. Briefly, cells were plated at 400,000 cells/well overnight at 37°C in 24-well plates pre-treated with PEI. After 30-min incubation at 37°C in glucose-free HBSS in the presence of vehicle or increasing concentrations of compound, 2-DG uptake was measured in glucose-free HBSS for 4 min at 37°C. Cultures were washed in ice-cold 1X PBS and lysed in 0.1% Triton X-100 in 1X PBS. Radiolabeled hexose uptake was determined by liquid scintillation counting (Ultima Gold, Thermo Fisher) and normalized to total protein per well. Uptake data are plotted as percent uptake relative to vehicle-treated cells. Kinetic analyses were performed using the indicated concentrations of substrate and WU-1, with quenching of uptake after 1 min incubation. Incubation times had been previously determined as being in the linear range of time-dependent radiolabeled hexose uptake (2 min for 2-DG uptake into freed parasites; 2 and 4 min for D-Frc and 2-DG uptake HEK cell lines, respectively). Data were fit by least squares nonlinear regression analysis using GraphPad Prism 6.0 software.

FTPfHT = target: T2, FTPfHT (Plasmodium falciparum, UniProt Q7KWJ5); assay: 2-DG uptake by HEK293 cells overexpressing FLAG-tagged PfHT (FTPfHT); format: cell-based; parameters: the 38–40 kDa band represents full length PfHT; expressed in transfected cells; host or cells: HEK293-FLIP (HEK293)
T2 sequence (Q7KWJ5 1-504): T1 sequence (Q7KWJ5 1-504)
Description: as §1, §2

For C=C1[C@@H](C)[C@H]2[C@H](Cc3ccccc3)NC(=O)[C@]23OC(=O)/C=C/[C@H](O)CCC[C@@H](C)C/C=C/[C@H]3[C@@H]1O [CB, cytochalasin B], the IC50 (PfHT; AVE IC50 (µM), PfHT, 2-DG Uptake, average of Expt 1-3) was 10.9 µM, the remaining activity at 0.001 µM (PfHT; HEK293, 4 min, read-out: 2-DG Uptake AVE, PfHT, concentration 0.001 µM, Expt 1-3) was 100% and the remaining activity at 0.3906 µM (PfHT; HEK293, 4 min, read-out: 2-DG Uptake AVE, PfHT, concentration 0.3906 µM) was 95.3%. The remaining activity at 0.7812 µM (PfHT; HEK293, 4 min, read-out: 2-DG Uptake AVE, PfHT, concentration 0.7812 µM) was 96.2%, the remaining activity at 1.56 µM (PfHT; HEK293, 4 min, read-out: 2-DG Uptake AVE, PfHT, concentration 1.56 µM) was 90.6% and the remaining activity at 3.125 µM (PfHT; HEK293, 4 min, read-out: 2-DG Uptake AVE, PfHT, concentration 3.125 µM) was 71%. It also gave a remaining activity at 6.25 µM (PfHT; HEK293, 4 min, read-out: 2-DG Uptake AVE, PfHT, concentration 6.25 µM) of 64.5%, a remaining activity at 12.5 µM (PfHT; HEK293, 4 min, read-out: 2-DG Uptake AVE, PfHT, concentration 12.5 µM) of 47.3% and a remaining activity at 25 µM (PfHT; HEK293, 4 min, read-out: 2-DG Uptake AVE, PfHT, concentration 25 µM) of 30.6%. For the same compound, the remaining activity at 50 µM (PfHT; HEK293, 4 min, read-out: 2-DG Uptake AVE, PfHT, concentration 50 µM) was 22.1%, the remaining activity at 100 µM (PfHT; HEK293, 4 min, read-out: 2-DG Uptake AVE, PfHT, concentration 100 µM) was 12.7% and the remaining activity at 200 µM (PfHT; HEK293, 4 min, read-out: 2-DG Uptake AVE, PfHT, concentration 200 µM) was 7.58%. For the same compound, the remaining activity at 400 µM (PfHT; HEK293, 4 min, read-out: 2-DG Uptake AVE, PfHT, concentration 400 µM) was 4.31%, the IC50 (PfHT; IC50 (µM), PfHT, 2-DG Uptake, single experiments Expt 1-3) was 10.3 µM and 12.6 µM and 9.78 µM and the IC50 (PfHT; IC50 for inhibition of 2-DG uptake, HEK293 cells overexpressing PfHT, mean/reported value) was 10.9 ± 0.9 µM. For the same compound, the IC50 (FTPfHT; FTPfHT, 2-DG Uptake, average of Expt 1-3, read-out: AVE IC50) was 29.9 µM, the IC50 (FTPfHT; FTPfHT, 2-DG Uptake, single experiments Expt 1-3, read-out: IC50) was 26.6 µM and 30.5 µM and 32.6 µM and the remaining activity at 0.001 µM (FTPfHT; HEK293, 4 min, FTPfHT, concentration 0.001 µM, Expt 1-3, read-out: 2-DG Uptake AVE) was 100%. It also gave a remaining activity at 0.3906 µM (FTPfHT; HEK293, 4 min, FTPfHT, concentration 0.3906 µM, read-out: 2-DG Uptake AVE) of 97.8%, a remaining activity at 0.7812 µM (FTPfHT; HEK293, 4 min, FTPfHT, concentration 0.7812 µM, read-out: 2-DG Uptake AVE) of 93.2% and a remaining activity at 1.56 µM (FTPfHT; HEK293, 4 min, FTPfHT, concentration 1.56 µM, read-out: 2-DG Uptake AVE) of 95.4%. It also gave a remaining activity at 3.125 µM (FTPfHT; HEK293, 4 min, FTPfHT, concentration 3.125 µM, read-out: 2-DG Uptake AVE) of 90%, a remaining activity at 6.25 µM (FTPfHT; HEK293, 4 min, FTPfHT, concentration 6.25 µM, read-out: 2-DG Uptake AVE) of 81.9% and a remaining activity at 12.5 µM (FTPfHT; HEK293, 4 min, FTPfHT, concentration 12.5 µM, read-out: 2-DG Uptake AVE) of 72.3%. For the same compound, the remaining activity at 25 µM (FTPfHT; HEK293, 4 min, FTPfHT, concentration 25 µM, read-out: 2-DG Uptake AVE) was 56%, the remaining activity at 50 µM (FTPfHT; HEK293, 4 min, FTPfHT, concentration 50 µM, read-out: 2-DG Uptake AVE) was 44.6% and the remaining activity at 100 µM (FTPfHT; HEK293, 4 min, FTPfHT, concentration 100 µM, read-out: 2-DG Uptake AVE) was 32.2%. For the same compound, the remaining activity at 200 µM (FTPfHT; HEK293, 4 min, FTPfHT, concentration 200 µM, read-out: 2-DG Uptake AVE) was 22.7%, the remaining activity at 400 µM (FTPfHT; HEK293, 4 min, FTPfHT, concentration 400 µM, read-out: 2-DG Uptake AVE) was 12.9% and the IC50 (FTPfHT; IC50 for inhibition of 2-DG uptake, HEK293 cells overexpressing FTPfHT) was 29.9 ± 1.8 µM.
